Results on six compounds are retold here after the supplement of paper PMC11061612.

Common to all, as to assay: Bliss excess, mean over the matrix (fraction); higher = more synergy
The subject of assay [1] is WM-115 (Melanoma). In outline: (§1)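 After 24 hours at 37°C and 5% CO2 in 1536-well plates, cells in DMEM/F12 or RPMI plus 10% FBS received two-drug dose matrices for 72 hours. Viability came from CellTiter-Glo 2.0 luminescence and was scaled as inhibition, anchored at 0 by vehicle wells and at 1 by blank wells. Combination Emax is taken as the second-highest inhibition in the matrix, and Bliss excess as the observed combination effect less EA + EB − EA·EB, with EA and EB the single-agent effects.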

Assay [2] deals with HDQ-P1 (Breast Carcinoma). In outline:
as §1

Assay [3] has as its system MOLT-16 (T-Lymphoblastic Leukemia). The gist of the method: as §1
Assay [4] relates to KCL-22 (Chronic Myelogenous Leukemia). The gist of the method:
as §1

For assay [5], the system named is NCI-H2818 (Mesothelioma). The gist of the method:
as §1

Assay [6] concerns SW837 (Colorectal Carcinoma). The gist of the method:
as §1

The subject of assay [7] is ES1 (Ewing's Sarcoma). The gist of the method: as §1
The subject of assay [8] is SU-DHL-8 (B-Cell Non-Hodgkin's Lymphoma). In outline:
as §1

Assay [9] relates to SR (Other Blood Carcinomas). In outline:
as §1

For assay [10], the system named is GR-ST (B-Lymphoblastic Leukemia). The gist of the method: as §1
The subject of assay [11] is KARPAS-45 (T-Lymphoblastic Leukemia). In outline: as §1
The subject of assay [12] is K-562 (Chronic Myelogenous Leukemia). The gist of the method:
as §1

Assay [13] has as its system MS751 (Cervical Carcinoma). The gist of the method:
as §1

The subject of assay [14] is P12-ICHIKAWA (T-Lymphoblastic Leukemia). The gist of the method:
as §1

In assay [15] the test system is HL-60 (Acute Myeloid Leukemia). The gist of the method: as §1
Assay [16] has as its system ES8 (Ewing's Sarcoma). The gist of the method: as §1
The test system of assay [17] is BFTC-905 (Bladder Carcinoma). In outline:
as §1

Assay [18] concerns L-540 (Hodgkin's Lymphoma). In outline:
as §1

The test system of assay [19] is EVSA-T (Breast Carcinoma). In outline: as §1
In assay [20] the test system is U251 (Low Grade Glioma). In outline: as §1

Regarding `NC1(C(=O)N[C@@H](CCO)c2ccc(Cl)cc2)CCN(c2ncnc3[nH]ccc23)CC1` [Capivasertib] + CC(=O)c1c(C)c2cnc(Nc3ccc(N4CCNCC4)cn3)nc2n(C2CCCC2)c1=O [Palbociclib] (first compound max 10 µM, 7x7, partner max 10 µM), the Bliss excess in assay [1] was -0.0469; in assay [2], -0.0092; in [3], -0.0011; in [4] it was 0.0438; in [5] it was -0.0025; in assay [6] it was -0.0531. The Bliss excess in [7] was 0.0697; in [8], 0.0646; in assay [9], 0.0289; in assay [10] it was -0.0067; in [11] it was 0.0327; in [12], 0.0122. Also, the Bliss excess in assay [13] is -0.0222; in assay [14] it was -0.0096; in assay [15], -0.0406; in assay [16] it was 0.0848; in assay [17], 0.0048; in assay [18], -0.0243. Besides, the values for the Bliss excess in assay [19] and in assay [20] were 0.0168 and 0.0007, respectively.

On to `CC1(C)CCC(CN2CCN(c3ccc(C(=O)NS(=O)(=O)c4ccc(NCC5CCOCC5)c([N+](=O)[O-])c4)c(Oc4cnc5[nH]ccc5c4)c3)CC2)=C(c2ccc(Cl)cc2)C1` [Venetoclax] + CN(C)CCCOc1ccc(-c2ccc3ncc4c(c3c2)n(C2CCOCC2)c(=O)n4C)cn1 [AZD0156] (first compound max 1 µM, 7x7, partner max 1 µM), for which the Bliss excess in assay [1] was -0.0314; in [2], -0.0292; in assay [3] it was 0.0462; in assay [4] it was 0.0042; in assay [5] it was -0.0501; in [6] it was -0.0067. Further, the Bliss excess in [7] is 0.0421; in assay [8], -0.0201; in assay [9], -0.0266; in [10], -0.0363; in [11], -0.0096; in assay [12] it was -0.0005. Moreover, the Bliss excess in assay [13] is 0.0165; in [14], 0.0509; in assay [15], 0.0448; in assay [16], 0.0212; in [17], 0.0232; in [18], 0.0137. For the same compound, the Bliss excess in assay [19] is -0.0005; in assay [20] it was -0.026.

Turning to `CC1(C)CCC(CN2CCN(c3ccc(C(=O)NS(=O)(=O)c4ccc(NCC5CCOCC5)c([N+](=O)[O-])c4)c(Oc4cnc5[nH]ccc5c4)c3)CC2)=C(c2ccc(Cl)cc2)C1` [Venetoclax] + CCN(CCO)CCCOc1ccc2c(Nc3cc(CC(=O)Nc4cccc(F)c4)[nH]n3)ncnc2c1 [AZD2811] (first compound max 1 µM, 7x7, partner max 1 µM), the Bliss excess in assay [1] was -0.0138; in [2] it was 0.0063; in assay [3], 0.0239; in [4], 0.0709; in [5], -0.0404; in assay [6], 0.0166. Further, the Bliss excess is 0.0721 in assay [7]; 0.0103 in assay [8]; 0.0073 in [9]; -0.0505 in [10]; -0.0373 in [11]; -0.0236 in assay [12]. Besides, the Bliss excess in assay [13] was 0.0094; in assay [14] it was -0.0612; in assay [15] it was -0.0385; in assay [16], 0.0092; in assay [17], -0.01; in assay [18] it was 0.0086. Further, the Bliss excess in assay [19] is 0.0485; in assay [20], -0.0104.

On to `Cc1c2c(nn1C)CSCc1cc(n(C)n1)CSc1cc(c3ccccc3c1)OCCCc1c(C(=O)O)n(C)c3c-2c(Cl)ccc13` [AZD5991] + Cc1cc2ncnn2cc1Nc1ncc2c(n1)n(C1CCOCC1)c(=O)n2C [AZD7648] (first compound max 1 µM, 7x7, partner max 10 µM), for which the Bliss excess in assay [1] was -0.11; in assay [2], -0.0352; in assay [3] it was -0.023; in assay [4] it was -0.0086; in assay [5], -0.0757; in assay [6], -0.0454. Moreover, the Bliss excess in assay [7] is -0.013; in assay [8] it was -0.0664; in assay [9], 0.0257; in assay [10], -0.149; in assay [11], -0.0163; in assay [12], 0.0044. The Bliss excess is -0.0396 in assay [13]; -0.0167 in assay [14]; 0.0014 in assay [15]; 0.0038 in [16]; -0.0282 in assay [17]; -0.0036 in [18]. In addition, the values for the Bliss excess in assay [19] and in [20] were -0.0156 and -0.0054, respectively.

For the compound `CC1(C)CCC(CN2CCN(c3ccc(C(=O)NS(=O)(=O)c4ccc(NCC5CCOCC5)c([N+](=O)[O-])c4)c(Oc4cnc5[nH]ccc5c4)c3)CC2)=C(c2ccc(Cl)cc2)C1` [Venetoclax] + C=CCn1c(=O)c2cnc(Nc3ccc(N4CCN(C)CC4)cc3)nc2n1-c1cccc(C(C)(C)O)n1 [AZD1775] (first compound max 1 µM, partner max 1 µM), the Bliss excess in assay [1] was -0.0465; in assay [2], -0.014; in [3], 0.143; in [4], -0.0114; in assay [5] it was -0.0649; in assay [6] it was 0.0009. Moreover, the Bliss excess in assay [7] was 0.0747; in assay [8], 0.0401; in [9] it was 0.062; in assay [10], -0.0109; in [11] it was -0.0002; in assay [12] it was 0.0486. In addition, the Bliss excess in assay [13] was 0.0125; in assay [14], 0.0117; in [15] it was -0.0175; in [16], 0.0309; in [17], 0.0078; in assay [18], 0.069. In addition, the values for the Bliss excess in assay [19] and in [20] were 0.0075 and -0.0787, respectively.

On to `CN(CCO)CC[C@H](CSc1ccccc1)Nc1ccc(S(=O)(=O)NC(=O)c2ccc(N3CCC([C@@H](O)c4ccccc4-c4ccc(Cl)cc4)CC3)cc2)cc1S(=O)(=O)C(F)(F)F` [AZD4320] + C[C@@H]1COCCN1C2=NC(=NC(=C2)C3(CC3)[S@](=N)(=O)C)C4=C5C=CNC5=NC=C4 [AZD6738] (first compound max 1 µM, 7x7, partner max 10 µM), for which the Bliss excess in assay [1] is -0.0413; in [2] it was 0.0268; in assay [3], -0.0095; in assay [4], 0.0092; in assay [5] it was -0.157; in assay [6], -0.0618. Moreover, the Bliss excess was 0.0567 in assay [7]; 0.019 in assay [8]; -0.0068 in assay [9]; -0.0413 in assay [10]; -0.0069 in [11]; -0.0245 in [12]. Further, the Bliss excess in [13] is 0.0029; in [14], -0.0133; in assay [15] it was -0.0348; in assay [16] it was 0.155; in assay [17] it was -0.0286; in assay [18], 0.0082. For the same compound, the Bliss excess in assay [19] was -0.0105; in assay [20], -0.0272.
